# Assay results from patent US12295939B2, “Substituted benzothiophene analogs as selective estrogen receptor degraders” (The Board of Trustees of the University of Illinois, priority 2018, dated 2025).
# What was measured:
# [1] = system: tamoxifen-sensitive ER+ MCF-7:WS8 breast cancer cells; assay: Growth inhibition in tamoxifen-sensitive ER+ MCF-7:WS8 breast cancer cells; type: cell-based; conditions: MCF7:WS8, MCF-7:WS8 cells; for IC50: assayed from 0.01 nM to 1 uM; for Emax: read-out: MCF7:WS8 Max efficacy (%)
# [2] = system: tamoxifen-resistant MCF-7:5C breast cancer cells; assay: Growth inhibition in tamoxifen-resistant MCF-7:5C breast cancer cells; type: cell-based; conditions: MCF7:5C, MCF-7:5C cells; for IC50: assayed from 0.01 nM to 1 uM; for Emax: read-out: MCF7:5C Max efficacy (%)
# ER (ERE) = assay: ER antagonism (ERE); type: cell-based
# Experimental: (§1) Example compounds were assayed to determine ER downregulation, relative binding affinity, and ER antagonism.
# ER = molecular target: T1, ER (Homo sapiens, UniProt P03372); assay: Relative binding affinity (RBA)
# T1 construct: endogenous in cells
# T1 sequence (P03372 1-595): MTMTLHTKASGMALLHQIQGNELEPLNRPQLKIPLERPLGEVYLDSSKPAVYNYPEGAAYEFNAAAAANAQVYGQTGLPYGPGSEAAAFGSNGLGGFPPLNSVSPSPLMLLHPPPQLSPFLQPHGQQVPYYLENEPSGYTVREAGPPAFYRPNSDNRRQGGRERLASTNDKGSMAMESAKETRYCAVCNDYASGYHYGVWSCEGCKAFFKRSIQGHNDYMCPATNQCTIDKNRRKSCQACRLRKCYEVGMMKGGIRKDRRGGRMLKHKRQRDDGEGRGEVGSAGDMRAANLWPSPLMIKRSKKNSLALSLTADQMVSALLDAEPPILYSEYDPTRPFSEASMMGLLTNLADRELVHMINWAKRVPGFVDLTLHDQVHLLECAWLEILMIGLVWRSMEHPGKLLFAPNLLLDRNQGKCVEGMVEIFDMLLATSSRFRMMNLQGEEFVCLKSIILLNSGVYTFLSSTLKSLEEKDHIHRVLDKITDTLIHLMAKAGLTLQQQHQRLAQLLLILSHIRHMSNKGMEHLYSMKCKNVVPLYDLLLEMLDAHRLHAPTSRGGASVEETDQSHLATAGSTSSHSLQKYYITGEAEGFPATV
# Experimental: as §1
Compound,IC50 [1] [nM],IC50 [2] [nM],IC50 (ER (ERE)) [nM],RBA (%) (ER),Emax [1] [%],Emax [2] [%]
"O=C(c1ccc(O)cc1)c1sc2cc(O)ccc2c1Oc1ccc(OCCN2CC(CF)C2)cc1 [Compound 1, (3-(4-(2-(3-(fluoromethyl)azetidin-1-yl)ethoxy)phenoxy)-6-hydroxybenzo[b]thiophen-2-yl)(4-hydroxyphenyl) methanone]",1.1 ± 0.1,1.2 ± 0.3,6.4 ± 0.4,–,75,30
"Cc1cc(O)ccc1C(=O)c1sc2cc(O)ccc2c1Oc1ccc(OCCN2CC(CF)C2)cc1 [Compound 2, (3-(4-(2-(3-(fluoromethyl)azetidin-1-yl)ethoxy)phenoxy)-6-hydroxybenzo[b]thiophen-2-yl)(4-hydroxy-2-methylphenyl) methanone]",0.5 ± 0.05,7.9 ± 0.15,–,–,80,45
"O=C(c1ccccc1)c1sc2cc(O)ccc2c1Oc1ccc(OCCN2CC(CF)C2)cc1 [Compound 3, (3-(4-(2-(3-(fluoromethyl)azetidin-1-yl)ethoxy)phenoxy)-6-hydroxybenzo[b]thiophen-2-yl)(phenyl)methanone]",0.55 ± 0.01,15 ± 4,4.3 ± 0.1,30.7 ± 7,65,60
"Cc1cc(F)cc(C)c1C(=O)c1sc2cc(O)ccc2c1Oc1ccc(OCCN2CC(CF)C2)cc1 [Compound 5, (4-fluoro-2,6-dimethylphenyl)(3-(4-(2-(3-(fluoromethyl)azetidin-1-yl)ethoxy)phenoxy)-6-hydroxybenzo[b]thiophen-2-yl)methanone]",0.41 ± 0.01,3.4 ± 0.5,3.5 ± 0.06,–,70,55
"Cc1ccccc1C(=O)c1sc2cc(O)ccc2c1Oc1ccc(OCCN2CC(CF)C2)cc1 [Compound 8, (3-(4-(2-(3-(fluoromethyl)azetidin-1-yl)ethoxy)phenoxy)-6-hydroxybenzo[b]thiophen-2-yl)(o-tolyl)methanone]",0.73 ± 0.02,0.65 ± 0.03,1.5 ± 0.09,46.5 ± 7,70,40
"Cc1cc(F)cc(C)c1C(=O)c1sc2cc(O)ccc2c1Oc1ccc(OC2CN(CCCF)C2)cc1 [Compound 17, (4-fluoro-2,6-dimethylphenyl)(3-(4-((1-(3-fluoropropyl)azetidin-3-yl)oxy)phenoxy)-6-hydroxybenzo[b]thiophen-2-yl)methanone]",0.55 ± 0.01,0.15 ± 0.06,–,–,75,70
"Cc1cc(F)cc(C)c1C(=O)c1sc2cc(O)ccc2c1Oc1ccc(OCCN2CC[C@@H](CF)C2)cc1 [Compound 35, (R)-(4-fluoro-2,6-dimethylphenyl)(3-(4-(2-(3-(fluoromethyl)pyrrolidin-1-yl)ethoxy)phenoxy)-6-hydroxybenzo[b]thiophen-2-yl)methanone]",0.56 ± 0.01,0.28 ± 0.07,12 ± 2,–,65,40
"Cc1ccccc1C(=O)c1sc2cc(O)ccc2c1Oc1ccc(OCCN2CCC2)cc1 [Compound 59, (3-(4-(2-(azetidin-1-yl)ethoxy)phenoxy)-6-hydroxybenzo[b]thiophen-2-yl)(o-tolyl)methanone]",0.5 ± 0.05,0.31 ± 0.07,–,–,70,35
"O=C(c1ccc(F)cc1)c1sc2cc(O)ccc2c1Oc1ccc(OCCN2CC(CF)C2)cc1 [Compound 61, (3-(4-(2-(3-(fluoromethyl)azetidin-1-yl)ethoxy)phenoxy)-6-hydroxybenzo[b]thiophen-2-yl)(4-fluorophenyl) methanone]",1.3 ± 0.1,0.58 ± 0.04,2.8 ± 0.1,9.15 ± 0.9,70,55
"Cc1ccc(C(=O)c2sc3cc(O)ccc3c2Oc2ccc(OCCN3CC(CF)C3)cc2)c(C)c1 [Compound 63, (2,4-dimethylphenyl)(3-(4-(2-(3-(fluoromethyl)azetidin-1-yl)ethoxy)phenoxy)-6-hydroxybenzo[b]thiophen-2-yl)methanone]",0.47 ± 0.009,0.56 ± 0.005,7.4 ± 0.3,–,65,50
"Cc1cc(F)cc(C)c1C(=O)c1sc2cc(O)ccc2c1Oc1ccc(OCCN2CC[C@H](CF)C2)cc1 [Compound 64, (S)-(4-fluoro-2,6-dimethylphenyl)(3-(4-(2-(3-(fluoromethyl)pyrrolidin-1-yl)ethoxy)phenoxy)-6-hydroxybenzo[b]thiophen-2-yl)methanone]",0.36 ± 0.001,0.16 ± 0.1,0.05 ± 0.001,–,70,50
"Cc1ccccc1C(=O)c1sc2cc(O)ccc2c1Oc1ccc(OCCN2CCCCC2)cc1 [Compound 65, (6-hydroxy-3-(4-(2-(piperidin-1-yl)ethoxy)phenoxy)benzo[b]thiophen-2-yl)(o-tolyl)methanone]",0.39 ± 0.05,> 1000,2.1 ± 0.06,91.8 ± 6,65,–
"Cc1cc(F)cc(C)c1C(=O)c1sc2cc(O)ccc2c1Oc1ccc(OC2CN(C3CC3)C2)cc1 [Compound 67, (3-(4-((1-cyclopropylazetidin-3-yl)oxy)phenoxy)-6-hydroxybenzo[b]thiophen-2-yl)(4-fluoro-2,6-dimethylphenyl) methanone]",0.42 ± 0.04,1 ± 0.8,–,–,65,20

# Stronger by IC50 [1], values ahead:
IC50 [1] [nM],IC50 [2] [nM],IC50 (ER (ERE)) [nM],RBA (%) (ER),Compound,Emax [1] [%],Emax [2] [%]
0.3 ± 0.02,0.2 ± 0.02,2.7 ± 0.09,–,"Cc1cc(F)ccc1C(=O)c1sc2cc(O)ccc2c1Oc1ccc(OCCN2CC(CF)C2)cc1 [Compound 4, (4-fluoro-2-methylphenyl)(3-(4-(2-(3-(fluoromethyl)azetidin-1-yl)ethoxy)phenoxy)-6-hydroxybenzo[b]thiophen-2-yl)methanone]",75,50
0.1 ± 0.01,0.23 ± 0.06,45 ± 15,–,"Cc1cccc(C)c1C(=O)c1sc2cc(O)ccc2c1Oc1ccc(OCCN2CC[C@@H](CF)C2)cc1 [Compound 9, (R)-(2,6-dimethylphenyl)(3-(4-(2-(3-(fluoromethyl)pyrrolidin-1-yl)ethoxy)phenoxy)-6-hydroxybenzo[b]thiophen-2-yl)methanone]",85,25
0.15 ± 0.02,0.12 ± 0.02,5.2 ± 0.06,–,"O=C(c1ccccc1)c1sc2cc(O)ccc2c1Oc1ccc(OC2CN(CCCF)C2)cc1 [Compound 15, (3-(4-((1-(3-fluoropropyl)azetidin-3-yl)oxy)phenoxy)-6-hydroxybenzo[b]thiophen-2-yl)(phenyl)methanone]",60,40
0.15 ± 0.02,0.95 ± 0.04,11 ± 0.5,38.1 ± 9,"Cc1cc(F)ccc1C(=O)c1sc2cc(O)ccc2c1Oc1ccc(OC2CN(CCCF)C2)cc1 [Compound 16, (4-fluoro-2-methylphenyl)(3-(4-((1-(3-fluoropropyl)azetidin-3-yl)oxy)phenoxy)-6-hydroxybenzo[b]thiophen-2-yl)methanone]",70,50
0.04 ± 0.006,4.9 ± 0.2,5.3 ± 0.08,27.8 ± 8,"Cc1ccccc1C(=O)c1sc2cc(O)ccc2c1Oc1ccc(OC2CN(CCCF)C2)cc1 [Compound 20, (3-(4-((1-(3-fluoropropyl)azetidin-3-yl)oxy)phenoxy)-6-hydroxybenzo[b]thiophen-2-yl)(o-tolyl)methanone]",75,70
0.02 ± 0.004,0.65 ± 0.01,1.9 ± 0.06,–,"Cc1ccccc1C(=O)c1sc2cc(O)ccc2c1Oc1ccc(OCCN2CC(C)C2)cc1 [Compound 60, (6-hydroxy-3-(4-(2-(3-methylazetidin-1-yl)ethoxy)phenoxy)benzo[b]thiophen-2-yl)(o-tolyl)methanone]",75,55
0.28 ± 0.03,1.4 ± 0.2,–,120 ± 13,"O=C(c1cccc(F)c1)c1sc2cc(O)ccc2c1Oc1ccc(OCCN2CC(CF)C2)cc1 [Compound 62, (3-(4-(2-(3-(fluoromethyl)azetidin-1-yl)ethoxy)phenoxy)-6-hydroxybenzo[b]thiophen-2-yl)(3-fluorophenyl) methanone]",75,60
0.27 ± 0.006,0.12 ± 0.03,–,–,"O=C(c1cccc(F)c1)c1sc2cc(O)ccc2c1Oc1ccc(OC2CN(CCCF)C2)cc1 [Compound 66, (3-fluorophenyl)(3-(4-((1-(3-fluoropropyl)azetidin-3-yl)oxy)phenoxy)-6-hydroxybenzo[b]thiophen-2-yl)methanone]",70,35
